What was measured:
MLKL [1] = target: T1, MLKL (Homo sapiens, UniProt Q8NB16); assay: Measurement of binding affinity with MLKL receptor (competitive binding assay, Kd); set-up: made in house; host or cells: HEK 293 cell line (T7 phage in E. coli BL21-derived host is also described)
T1 sequence (Q8NB16 1-471): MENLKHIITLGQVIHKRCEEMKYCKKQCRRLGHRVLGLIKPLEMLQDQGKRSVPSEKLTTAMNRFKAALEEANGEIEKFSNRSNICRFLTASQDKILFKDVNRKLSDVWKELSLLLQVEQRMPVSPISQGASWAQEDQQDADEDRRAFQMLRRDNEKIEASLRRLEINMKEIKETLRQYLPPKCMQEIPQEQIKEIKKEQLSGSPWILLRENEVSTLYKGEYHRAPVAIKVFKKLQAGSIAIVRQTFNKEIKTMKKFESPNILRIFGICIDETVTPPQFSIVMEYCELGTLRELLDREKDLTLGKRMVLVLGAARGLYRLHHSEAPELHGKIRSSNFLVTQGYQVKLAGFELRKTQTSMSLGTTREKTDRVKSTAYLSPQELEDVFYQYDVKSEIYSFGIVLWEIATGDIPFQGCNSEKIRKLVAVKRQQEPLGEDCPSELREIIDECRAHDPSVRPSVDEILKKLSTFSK
Method in brief: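 Competition binding of kinase tagged with DNA for qPCR detection, expressed in HEK 293 cells, against immobilized ligand on beads. Final DMSO 0.9%. Kd derived from kinase amount in eluates measured by qPCR.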

MLKL [2] = target: T1, MLKL; assay: MLKL degradation assay in HepG2 cell line (western blot); assay type: cell-based; set-up: endogenous in cells; host or cells: HepG2 or HaCaT; details: cell line not given; for Degradation assay (Degradation %) 1 μM: compound 1 μM; for Degradation assay (Degradation %) 10 μM: compound 10 μM
Method in brief: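 Cells seeded, next day medium swapped for compound-containing medium (final 1 or 10 μM) and incubated 20-24 h at 37 °C. Lysates in RIPA with protease/phosphatase inhibitors were protein-matched by BCA, run on SDS-PAGE and immunoblotted for MLKL.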

FADD−/− Jurkat cells = assay: Necroptosis inhibition assay, TNF-α-induced necroptosis (CellTiter-Glo 2.0); assay type: cell-based, human; details: TNF-α 15 ng/mL; for Necroptosis inhibition assay (Rescue %) 1 μM: compound 1 μM; for Necroptosis inhibition assay (Rescue %) 10 μM: compound 10 μM; for Necroptosis inhibition assay (Rescue %) 1.1 μM: compound 1.1 µM
Method in brief: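 Luminescent ATP measurement gave viability, from which cytotoxicity and necroptosis inhibition rate were derived. Before that, cells (5.0×10^5 cells/mL) saw compound at 0.1, 1 or 10 μM final for 30 minutes at room temperature, then TNF-α (15 ng/mL final) for 20 to 24 hours at 37° C.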

Row | SMILES | Kd (MLKL [1]) | Degradation assay (Degradation %) 1 μM (MLKL [2]) | Degradation assay (Degradation %) 10 μM (MLKL [2]) | Necroptosis inhibition assay (Rescue %) 1 μM (FADD−/− Jurkat cells) | Necroptosis inhibition assay (Rescue %) 10 μM (FADD−/− Jurkat cells) | Necroptosis inhibition assay (Rescue %) 1.1 μM (FADD−/− Jurkat cells)
1 | Nc1ncc(-c2cnn(C3CCN(CC4CCN(C(=O)CCc5ccc6c(c5)C(=O)N(C5CCC(=O)NC5=O)C6=O)CC4)CC3)c2)nc1C(=O)O[C@@H](C(=O)Nc1ccc(F)cc1)c1ccccc1 (stereo partly drawn) [TDH-328, (R)-2-((4-fluorophenyl)amino)-2-oxo-1-phenylethyl 3-amino-6-(1-(1-((1-(3-(2-(2,6-dioxopiperidin-3-yl)-1,3-dioxoisoindolin-5-yl)propanoyl)piperidin-4-yl)methyl)piperidin-4-yl)-1H-pyrazol-4-yl)pyrazine-2-carboxylate] | 1.8 nM | 69.07% | 58.46% | 52.22% | 31.65% | –
2 | Nc1ncc(-c2cnn(C3CCN(CCC4CCN(C(=O)COc5ccc6nnn(C7CCC(=O)NC7=O)c(=O)c6c5)CC4)CC3)c2)nc1C(=O)O[C@@H](C(=O)Nc1ccc(F)cc1)c1ccccc1 (stereo partly drawn) [TDH-330, (R)-2-((4-fluorophenyl)amino)-2-oxo-1-phenylethyl 3-amino-6-(1-(1-(2-(1-(2-((3-(2,6-dioxopiperidin-3-yl)-4-oxo-3,4-dihydrobenzo[d][1,2,3]triazin-6-yl)oxy)acetyl)piperidin-4-yl)ethyl)piperidin-4-yl)-1H-pyrazol-4-yl)pyrazine-2-carboxylate] | 0.65 nM | 59.64% | 49.16% | – | 51.95% | 54.05 (1.1µM) %
3 | Nc1ncc(-c2cnn(C3CCN(CCOC4CCN(C(=O)COc5cccc6c5C(=O)N(C5CCC(=O)NC5=O)C6=O)CC4)CC3)c2)nc1C(=O)O[C@@H](C(=O)Nc1ccc(F)cc1)c1ccccc1 (stereo partly drawn) [TDH-331, (R)-2-((4-fluorophenyl)amino)-2-oxo-1-phenylethyl 3-amino-6-(1-(1-(2-((1-(2-((2-(2,6-dioxopiperidin-3-yl)-1,3-dioxoisoindolin-4-yl)oxy)acetyl)piperidin-4-yl)oxy)ethyl)piperidin-4-yl)-1H-pyrazol-4-yl)pyrazine-2-carboxylate] | 2.6 nM | 54.86% | 60.37% | – | 47.13% | 49.38 (1.1 µM) %
4 | Nc1ncc(-c2cnn(C3CCN(CCOC4CCN(C(=O)COc5ccc6c(c5)C(=O)N(C5CCC(=O)NC5=O)C6=O)CC4)CC3)c2)nc1C(=O)O[C@@H](C(=O)Nc1ccc(F)cc1)c1ccccc1 (stereo partly drawn) [TDH-332, (R)-2-((4-fluorophenyl)amino)-2-oxo-1-phenylethyl 3-amino-6-(1-(1-(2-((1-(2-((2-(2,6-dioxopiperidin-3-yl)-1,3-dioxoisoindolin-5-yl)oxy)acetyl)piperidin-4-yl)oxy)ethyl)piperidin-4-yl)-1H-pyrazol-4-yl)pyrazine-2-carboxylate] | 2.6 nM | 61.62% | 63.17% | – | 37.17% | 68.62 (1.1 µM) %
5 | Nc1ncc(-c2cnn(C3CCN(CCC4CCN(C(=O)C5CN(c6ccc7nnn(C8CCC(=O)NC8=O)c(=O)c7c6)C5)CC4)CC3)c2)nc1C(=O)O[C@@H](C(=O)Nc1ccc(F)cc1)c1ccccc1 (stereo partly drawn) [TDH-333, (R)-2-((4-fluorophenyl)amino)-2-oxo-1-phenylethyl 3-amino-6-(1-(1-(2-(1-(1-(3-(2,6-dioxopiperidin-3-yl)-4-oxo-3,4-dihydrobenzo[d][1,2,3]triazin-6-yl)azetidine-3-carbonyl)piperidin-4-yl)ethyl)piperidin-4-yl)-1H-pyrazol-4-yl)pyrazine-2-carboxylate] | 4.1 nM | 57.66% | 71.32% | – | 36.65% | 58.92 (1.1µM) %
6 | Nc1ncc(-c2cnn(C3CCN(CCC4CCN(C(=O)CNc5ccc6nnn(C7CCC(=O)NC7=O)c(=O)c6c5)CC4)CC3)c2)nc1C(=O)O[C@@H](C(=O)Nc1ccc(F)cc1)c1ccccc1 (stereo partly drawn) [TDH-334, (R)-2-((4-fluorophenyl)amino)-2-oxo-1-phenylethyl 3-amino-6-(1-(1-(2-(1-((3-(2,6-dioxopiperidin-3-yl)-4-oxo-3,4-dihydrobenzo[d][1,2,3]triazin-6-yl)glycyl)piperidin-4-yl)ethyl)piperidin-4-yl)-1H-pyrazol-4-yl)pyrazine-2-carboxylate] | 0.82 nM | 75.98% | 83.61% | – | 50.45% | 86.58 (1.1 µM) %
7 | Nc1ncc(-c2cnn(C3CCN(CC4CCN(C(=O)CCc5cccc6c5C(=O)N(C5CCC(=O)NC5=O)C6=O)CC4)CC3)c2)nc1C(=O)O[C@@H](C(=O)Nc1ccc(F)cc1)c1ccccc1 (stereo partly drawn) [TDH-336, (R)-2-((4-fluorophenyl)amino)-2-oxo-1-phenylethyl 3-amino-6-(1-(1-((1-(3-(2-(2,6-dioxopiperidin-3-yl)-1,3-dioxoisoindolin-4-yl)propanoyl)piperidin-4-yl)methyl)piperidin-4-yl)-1H-pyrazol-4-yl)pyrazine-2-carboxylate] | 1.4 nM | 73.04% | 66.71% | 39.89% | 19.67% | –

Second part, led by results:

Row | Kd (MLKL [1]) | Degradation assay (Degradation %) 1 μM (MLKL [2]) | Degradation assay (Degradation %) 10 μM (MLKL [2]) | SMILES | Necroptosis inhibition assay (Rescue %) 1 μM (FADD−/− Jurkat cells) | Necroptosis inhibition assay (Rescue %) 10 μM (FADD−/− Jurkat cells) | Necroptosis inhibition assay (Rescue %) 1.1 μM (FADD−/− Jurkat cells)
8 | 2.5 nM | 46.82% | 65.07% | Nc1ncc(-c2cnn(C3CCN(C(=O)CC4CCN(C(=O)COc5cccc6c5C(=O)N(C5CCC(=O)NC5=O)C6=O)CC4)CC3)c2)nc1C(=O)O[C@@H](C(=O)Nc1ccc(F)cc1)c1ccccc1 (stereo partly drawn) [TDH-337, (R)-2-((4-fluorophenyl)amino)-2-oxo-1-phenylethyl 3-amino-6-(1-(1-(2-(1-(2-((2-(2,6-dioxopiperidin-3-yl)-1,3-dioxoisoindolin-4-yl)oxy)acetyl)piperidin-4-yl)acetyl)piperidin-4-yl)-1H-pyrazol-4-yl)pyrazine-2-carboxylate] | 32.31% | 45.5% | –
9 | 5.5 nM | 59.83% | 79.19% | Nc1ncc(-c2cnn(C3CCN(C(=O)CC4CCN(C(=O)COc5ccc6c(c5)C(=O)N(C5CCC(=O)NC5=O)C6=O)CC4)CC3)c2)nc1C(=O)O[C@@H](C(=O)Nc1ccc(F)cc1)c1ccccc1 (stereo partly drawn) [TDH-338, (R)-2-((4-fluorophenyl)amino)-2-oxo-1-phenylethyl 3-amino-6-(1-(1-(2-(1-(2-((2-(2,6-dioxopiperidin-3-yl)-1,3-dioxoisoindolin-5-yl)oxy)acetyl)piperidin-4-yl)acetyl)piperidin-4-yl)-1H-pyrazol-4-yl)pyrazine-2-carboxylate] | 50.8% | 50.29% | –
10 | 13 nM | 71.36% | 51.92% | Nc1ncc(-c2cnn(C3CCN(C(=O)CC4CCN(C(=O)CNc5cccc6c5C(=O)N(C5CCC(=O)NC5=O)C6=O)CC4)CC3)c2)nc1C(=O)O[C@@H](C(=O)Nc1ccc(F)cc1)c1ccccc1 (stereo partly drawn) [TDH-339, (R)-2-((4-fluorophenyl)amino)-2-oxo-1-phenylethyl 3-amino-6-(1-(1-(2-(1-((2-(2,6-dioxopiperidin-3-yl)-1,3-dioxoisoindolin-4-yl)glycyl)piperidin-4-yl)acetyl)piperidin-4-yl)-1H-pyrazol-4-yl)pyrazine-2-carboxylate] | 12.23% | 12.31% | –
11 | 7.5 nM | 73.39% | 73.33% | Nc1ncc(-c2cnn(C3CCN(C(=O)CC4CCN(C(=O)CNc5ccc6c(c5)C(=O)N(C5CCC(=O)NC5=O)C6=O)CC4)CC3)c2)nc1C(=O)O[C@@H](C(=O)Nc1ccc(F)cc1)c1ccccc1 (stereo partly drawn) [TDH-340, (R)-2-((4-fluorophenyl)amino)-2-oxo-1-phenylethyl 3-amino-6-(1-(1-(2-(1-((2-(2,6-dioxopiperidin-3-yl)-1,3-dioxoisoindolin-5-yl)glycyl)piperidin-4-yl)acetyl)piperidin-4-yl)-1H-pyrazol-4-yl)pyrazine-2-carboxylate] | 42.94% | 43.81% | –
